Test results as given in US9586952B2, “Polycyclic estrogen receptor modulators and uses thereof” (SERAGON PHARMACEUTICALS, INC., priority 2013, dated 2017).

Key:
MCF-7 cells = experiment: MCF7 Viability Assay (Breast Cancer Cell Viability Assay); format: cell-based; details: 5 days' compound exposure, CellTiter-Glo; for IC50: Homo sapiens, MCF7, 120 h
Method in brief: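 Cells (320 per well, RPMI with 10% FBS and 20 mM HEPES) adhered overnight, then were exposed 5 days to an eleven-point semilog compound series, 0.3-0.000003 μM final. Viability read by CellTiter-Glo luminescence, background-subtracted, expressed as % of untreated cells.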

ER-α = target: T1, ER-α (Homo sapiens, UniProt P03372); experiment: Breast Cancer Cell ER-α In Cell Western Assay (SP1); format: cell-based; details: MCF-7 cells, 4 or 24 hr post compound addition, SP1 antibody; for Emax: MCF7, read-out: ER-α In Cell Western Assay (SP1) Max Response; for DC50: read-out: ER-α In Cell Western Assay (SP1) IC50
T1 construct: endogenous in cells; host or cells: MCF-7
T1 sequence (P03372 1-595): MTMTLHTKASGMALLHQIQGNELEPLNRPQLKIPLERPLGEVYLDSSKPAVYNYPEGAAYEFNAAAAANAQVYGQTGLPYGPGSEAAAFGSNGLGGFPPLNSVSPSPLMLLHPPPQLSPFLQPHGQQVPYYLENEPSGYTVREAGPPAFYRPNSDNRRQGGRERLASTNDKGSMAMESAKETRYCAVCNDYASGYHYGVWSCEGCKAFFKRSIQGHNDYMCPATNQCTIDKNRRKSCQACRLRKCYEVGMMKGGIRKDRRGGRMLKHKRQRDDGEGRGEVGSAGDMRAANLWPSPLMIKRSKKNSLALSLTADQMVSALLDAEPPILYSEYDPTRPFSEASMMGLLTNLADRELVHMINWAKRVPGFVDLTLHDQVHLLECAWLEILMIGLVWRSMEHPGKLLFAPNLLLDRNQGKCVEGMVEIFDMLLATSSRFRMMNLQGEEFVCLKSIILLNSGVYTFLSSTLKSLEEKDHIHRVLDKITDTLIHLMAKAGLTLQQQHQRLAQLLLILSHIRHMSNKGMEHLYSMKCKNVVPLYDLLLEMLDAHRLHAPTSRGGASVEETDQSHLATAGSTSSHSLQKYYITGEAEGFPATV
Method in brief: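 MCF-7 cells in RPMI with 10% charcoal-stripped FBS received an eleven-point semilog series, 0.3-0.000003 μM final, for 4 or 24 hr. After fixation, ER-α stained with SP1 antibody and IRDye 800 CW, DNA with DRAQ5; % ER = 800/700 nm intensity ratio relative to untreated cells.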

Structure (SMILES)	IC50 (MCF-7 cells) [nM]	Emax (ER-α) [%]	DC50 (ER-α) [nM]	MCF7 Viability Assay Max Response (MCF-7 cells)
N#Cc1cc(Cl)ccc1/C(=C(\c1ccc(/C=C/C(=O)O)cc1)c1ccc(N2CCOCC2)cc1)C1CCC1 [Example 46, (E)-3-(4-((E)-2-(4-Chloro-2-cyanophenyl)-2-cyclobutyl-1-(4-morpholinophenyl)vinyl)phenyl)acrylic acid]	≤ 100	≥ 40	≤ 100	++ (++ = a single % value ≧ 40%)
COc1ccc(/C(=C(\c2ccc(/C=C/C(=O)O)cc2)c2ccc(N3CCOCC3)cc2)C2CCC2)c(C)c1 [Example 47, (E)-3-(4-((E)-2-Cyclobutyl-2-(4-methoxy-2-methylphenyl)-1-(4-morpholinophenyl)vinyl)phenyl)acrylic acid]	≤ 100	≥ 40	≤ 100	++ (++ = a single % value ≧ 40%)
O=C(O)/C=C/c1ccc(/C(=C(\c2ccc(C(F)(F)F)cc2Cl)C2CCC2)c2ccc(N3CCOCC3)cc2)cc1 [Example 48, (E)-3-(4-((E)-2-(2-Chloro-4-(trifluoromethyl)phenyl)-2-cyclobutyl-1-(4-morpholinophenyl)vinyl)phenyl)acrylic acid]	≤ 100	≥ 40	≤ 100	++ (++ = a single % value ≧ 40%)
O=C(O)/C=C/c1ccc(/C(=C(\c2ccc(OC(F)(F)F)cc2Cl)C2CCC2)c2ccc(-c3cn[nH]c3)cc2)cc1 [Example 52, (E)-3-(4-((E)-1-(4-(1H-Pyrazol-4-yl)phenyl)-2-(2-chloro-4-(trifluoromethoxy)phenyl)-2-cyclobutylvinyl)phenyl)acrylic acid]	≤ 100	≥ 40	≤ 100	++ (++ = a single % value ≧ 40%)
COc1ccc(/C(=C(\c2ccc(/C=C/C(=O)O)cc2)c2ccc(-c3cncs3)cc2)C2CCC2)c(Cl)c1 [Example 53, (E)-3-(4-((E)-2-(2-Chloro-4-methoxyphenyl)-2-cyclobutyl-1-(4-(thiazol-5-yl)phenyl)vinyl)phenyl)acrylic acid]	≤ 100	≥ 40	≤ 100	++ (++ = a single % value ≧ 40%)
COc1ccc(/C(=C(\c2ccc(/C=C/C(=O)O)cc2)c2ccc(-c3cncs3)cc2)C2CCC2)c(C)c1 [Example 54, (E)-3-(4-((E)-2-Cyclobutyl-2-(4-methoxy-2-methylphenyl)-1-(4-(thiazol-5-yl)phenyl)vinyl)phenyl)acrylic acid]	≤ 100	≥ 40	≤ 100	++ (++ = a single % value ≧ 40%)

Continued, in another order:

IC50 (MCF-7 cells) [nM]	Emax (ER-α) [%]	DC50 (ER-α) [nM]	Structure (SMILES)	MCF7 Viability Assay Max Response (MCF-7 cells)
> 100	< 40	> 100	O=C(O)/C=C/c1ccc(/C(=C(\c2ccc(F)cc2Cl)C2CCC2)c2ccc(-c3nn[nH]n3)cc2)cc1 [Example 49, (E)-3-(4-((E)-1-(4-(2H-Tetrazol-5-yl)phenyl)-2-(2-chloro-4-fluorophenyl)-2-cyclobutylvinyl)phenyl)acrylic acid]	+ (+ = a single % value < 40%)
> 100	≥ 40	> 100	COc1ccc(/C(=C(\c2ccc(/C=C/C(=O)O)cc2)c2ccc(-c3nn[nH]n3)cc2)C2CCC2)c(Cl)c1 [Example 50, (E)-3-(4-((E)-1-(4-(2H-Tetrazol-5-yl)phenyl)-2-(2-chloro-4-methoxyphenyl)-2-cyclobutylvinyl)phenyl)acrylic acid]	++ (++ = a single % value ≧ 40%)
≤ 100	≥ 40	≤ 100	COc1ccc(/C(=C(\c2ccc(/C=C/C(=O)O)cc2)c2ccc(-c3cn[nH]c3)cc2)C2CCC2)c(Cl)c1 [Example 51, (E)-3-(4-((E)-1-(4-(1H-Pyrazol-4-yl)phenyl)-2-(2-chloro-4-methoxyphenyl)-2-cyclobutylvinyl)phenyl)acrylic acid]	++ (++ = a single % value ≧ 40%)
